The values that follow are results of earlier work, collected in publication PMC3172902 (British Journal of Cancer, 2011).

The data set has as its target CDK2 (Homo sapiens, UniProt P24941). Briefly: cell-free CDK2 inhibition (value printed without citation; method not described). It is filed as biochemical.

Broadly, the IC50 is the concentration that gives 50% inhibition. With NU6252, the IC50 is 19 nM.
